In patent US9650339B2, “Inhibitors of histone demethylases” (Gilead Sciences, Inc., priority 2013, dated 2017):

Legend:
KDM7 (PHF8) = target: T1, KDM7 (PHF8) (Homo sapiens, UniProt Q9UPP1); test: Histone lysine demethylase AlphaLISA assay, KDM7; type: biochemical; details: read-out: PHF8 HDME Inhibition IC50
T1 construct: KDM7 (PHF8); BRIC; 1-1322; Bac
In short: (§1)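 Biotinylated methylated H3 peptides (K9, K4, K27 or K36 marks) served as substrate, with 25 μM L-Asc and 10 μM α-KG. Enzymes were preincubated 10 min, then exposed to compounds (3% DMSO solutions) 10 min; product detected by AlphaLISA acceptor and streptavidin donor beads at room temperature in dark.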

KDM3A (JMJD1A) = target: T2, KDM3A (JMJD1A) (Homo sapiens, UniProt Q9Y4C1); test: Histone lysine demethylase AlphaLISA assay, KDM3A; type: biochemical; details: read-out: KDM3 A HDME Inhibition IC50
T2 construct: 2-end; purchased BPS Bioscience, US; host or cells: Bac (baculovirus system)
T2 sequence (Q9Y4C1 2-1321 limits assumed): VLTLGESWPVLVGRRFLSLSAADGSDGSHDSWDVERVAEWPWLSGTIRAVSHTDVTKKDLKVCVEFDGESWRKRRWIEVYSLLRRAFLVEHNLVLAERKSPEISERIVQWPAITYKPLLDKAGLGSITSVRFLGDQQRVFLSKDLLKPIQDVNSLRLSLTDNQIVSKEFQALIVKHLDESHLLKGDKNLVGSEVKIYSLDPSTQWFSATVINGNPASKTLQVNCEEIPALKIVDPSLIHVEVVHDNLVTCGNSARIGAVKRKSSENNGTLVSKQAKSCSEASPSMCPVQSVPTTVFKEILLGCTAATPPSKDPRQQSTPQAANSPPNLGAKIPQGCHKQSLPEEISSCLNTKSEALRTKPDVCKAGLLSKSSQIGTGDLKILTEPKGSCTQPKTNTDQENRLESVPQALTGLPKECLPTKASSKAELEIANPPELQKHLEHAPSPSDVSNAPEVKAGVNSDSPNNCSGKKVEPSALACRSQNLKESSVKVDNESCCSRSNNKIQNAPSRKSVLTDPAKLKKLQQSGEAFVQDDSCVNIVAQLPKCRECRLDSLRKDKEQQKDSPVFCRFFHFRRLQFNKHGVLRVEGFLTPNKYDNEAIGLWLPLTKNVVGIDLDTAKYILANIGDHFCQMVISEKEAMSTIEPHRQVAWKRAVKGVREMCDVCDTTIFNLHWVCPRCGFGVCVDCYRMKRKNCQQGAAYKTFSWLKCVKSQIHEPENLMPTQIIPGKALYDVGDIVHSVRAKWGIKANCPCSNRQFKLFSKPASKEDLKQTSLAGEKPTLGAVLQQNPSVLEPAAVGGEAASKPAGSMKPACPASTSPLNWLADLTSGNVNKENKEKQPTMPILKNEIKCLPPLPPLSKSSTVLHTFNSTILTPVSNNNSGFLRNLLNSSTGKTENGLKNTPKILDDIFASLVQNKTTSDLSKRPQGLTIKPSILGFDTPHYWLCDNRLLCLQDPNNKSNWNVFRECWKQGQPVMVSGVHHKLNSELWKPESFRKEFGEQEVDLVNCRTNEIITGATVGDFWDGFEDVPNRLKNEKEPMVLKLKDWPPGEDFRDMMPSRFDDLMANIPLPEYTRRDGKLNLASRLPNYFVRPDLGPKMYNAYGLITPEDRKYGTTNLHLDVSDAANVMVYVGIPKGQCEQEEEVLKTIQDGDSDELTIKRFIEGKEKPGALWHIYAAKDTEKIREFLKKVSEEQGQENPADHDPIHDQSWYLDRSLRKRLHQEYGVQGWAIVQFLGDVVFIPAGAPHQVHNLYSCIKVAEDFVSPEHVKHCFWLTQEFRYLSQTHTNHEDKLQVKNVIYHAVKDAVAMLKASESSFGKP
In short: as §1

T1 sequence (Q9UPP1 37-440 limits assumed): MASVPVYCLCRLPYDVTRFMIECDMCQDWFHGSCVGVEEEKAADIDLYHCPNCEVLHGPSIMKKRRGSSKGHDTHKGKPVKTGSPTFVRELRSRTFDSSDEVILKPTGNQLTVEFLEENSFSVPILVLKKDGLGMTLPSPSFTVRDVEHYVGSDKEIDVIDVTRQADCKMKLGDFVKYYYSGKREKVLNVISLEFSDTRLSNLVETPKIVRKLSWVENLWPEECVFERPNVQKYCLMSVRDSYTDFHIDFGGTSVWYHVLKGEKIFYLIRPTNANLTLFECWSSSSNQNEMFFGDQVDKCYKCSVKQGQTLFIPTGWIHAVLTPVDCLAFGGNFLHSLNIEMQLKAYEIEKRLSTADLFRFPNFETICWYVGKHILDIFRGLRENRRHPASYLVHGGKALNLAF

SMILES | IC50 (KDM7 (PHF8)) | IC50 (KDM3A (JMJD1A))
CN(C)CCNCc1ccnc(CNCCCN(C)Cc2ccccc2)c1 [Compound 18, benzyl[3-({[4-({[2-(dimethylamino)ethyl]-amino}methyl)pyridin-2-yl]methyl}-amino)propyl]-methylamine] | > 2500 nM | > 2500 nM
O=Cc1ccnc(CNCC(=O)NC2CCN(Cc3ccccc3)C2)c1 (centres unmarked) [Compound 113, N-(1-benzylpyrrolidin-3-yl)-2-{[(4-formylpyridin-2-yl)methyl]amino}-acetamide] | > 2500 nM | > 2500 nM
O=Cc1ccnc(CNCCCCN(Cc2ccccc2)C2CC2)c1 [Compound 109, 2-[({4-[benzyl-(cyclopropyl)amino]-butyl}amino)methyl]-pyridine-4-carbaldehyde] | > 2500 nM | > 2500 nM
COCCNCc1ccnc(CNCCCN(C)Cc2ccccc2)c1 [Compound 19, benzyl(3-{[(4-{[(2-methoxyethyl)amino]-methyl}pyridin-2-yl)methyl]amino}-propyl)methylamine] | > 2500 nM | > 2500 nM

More lines, now with the values ahead:

IC50 (KDM7 (PHF8)) | IC50 (KDM3A (JMJD1A)) | SMILES
250 to 2500 nM | > 2500 nM | COC(=O)CNCc1cc(/C=N/C2CC2)ccn1 [Compound 59, methyl 2-[({4-[N-cyclopropyl-carboximidoyl]pyridin-2-yl}methyl)amino]-acetate]
< 250 nM | > 2500 nM | COc1ccccc1CN1CCC(NC(=O)CNCc2cc(CNC3CC3)ccn2)CC1 [Compound 20, 2-[({4-[(cyclopropylamino)-methyl]pyridin-2-yl}methyl)amino]-N-{1-[(2-methoxyphenyl)methyl]-piperidin-4-yl}acetamide]
> 2500 nM | > 2500 nM | CN(C)CCCCNCc1cc(CN)ccn1 [Compound 2, [2-({[4-(dimethylamino)butyl]-amino}methyl)pyridin-4-yl]methanamine]
